In brackets after ≈: the same amount, converted by molar mass.
Assays:
[1] = Solubility of the compound in pH 7 phosphate buffer; type: physicochemical
[2] = Cmax in C57BL/6 mouse at 1 mg/kg, iv and 2 mg/kg, po; type: ADME, organism-based; design: dose 2 mg/kg; settings: in vivo
[3] = Dose normalized AUC in C57BL/6 mouse at 2 mg/kg, po; type: ADME, organism-based; settings: in vivo
[4] = Total clearance in C57BL/6 mouse in whole blood at 1 mg/kg, iv; type: ADME, organism-based
[5] = Half life in C57BL/6 mouse at 1 mg/kg, iv; type: ADME, organism-based; settings: in vivo
[6] = Oral bioavailability in C57BL/6 mouse at 2 mg/kg; type: ADME, organism-based; settings: in vivo
[7] = Lipophilicity, logD of the compound at pH 7.3 by HPLC analysis; type: physicochemical; settings: buffer
[8] = Solubility of the compound in pH 7 phosphate buffer by shake-flask method; type: physicochemical
[9] = Dose normalized AUC in CD1 mouse at 1 mg/kg, iv and 2 mg/kg, po; type: ADME, organism-based; settings: in vivo
[10] = MRT in CD1 mouse at 1 mg/kg, iv and 2 mg/kg, po; type: ADME, organism-based; settings: in vivo
[11] = Clearance in CD1 mouse at 1 mg/kg, iv and 2 mg/kg, po; type: ADME, organism-based; settings: in vivo
[12] = Volume of distribution at steady state in CD1 mouse at 1 mg/kg, iv and 2 mg/kg, po; type: ADME, organism-based; settings: in vivo, read-out: Vdss
[13] = Bioavailability in CD1 mouse at 1 mg/kg, iv and 2 mg/kg, po; type: ADME, organism-based; settings: in vivo
[14] = Metabolic stability in liver microsomes (unknown origin); type: ADME, Microsome
[15] = Terminal half life in C57BL/6-transgenic mouse expressing human CETP at 100 mg/kg, po qd treated for 7 days measured for 240 hrs; type: ADME, organism-based; settings: C57BL/6-transgenic expressing human CETP, in vivo, time 7 day, read-out: beta t1/2 (converted)
[16] = Half life in C57BL/6 mouse at 0.6 mg/kg, iv; type: ADME, organism-based; settings: in vivo
[17] = Terminal half life in C57BL/6-transgenic mouse expressing human CETP at 200 mg/kg, po qd treated for 7 days measured for 240 hrs; type: ADME, organism-based; settings: in vivo, 168 h, time 7 day
[18] = Terminal half life in DIO NFR-transgenic mouse plasma at 100 mg/kg, po once daily for 14 days; type: ADME, organism-based; settings: time 14 day, read-out: beta t1/2 (converted)
[19] = Terminal half life in DIO NFR-transgenic mouse liver at 100 mg/kg, po once daily for 14 days; type: ADME, organism-based; settings: in vivo, time 14 day
[20] = Terminal half life in DIO NFR-transgenic mouse adipose tissue at 100 mg/kg, po once daily for 14 days; type: ADME, organism-based; settings: in vivo, time 14 day
[21] = Terminal half life in DIO NFR-transgenic mouse plasma at 30 mg/kg, po once daily for 14 days; type: ADME, organism-based; settings: time 14 day, read-out: beta t1/2 (converted)
[22] = Terminal half life in DIO NFR-transgenic mouse liver at 30 mg/kg, po once daily for 14 days; type: ADME, organism-based; settings: time 14 day, read-out: beta t1/2 (converted)
[23] = Terminal half life in DIO NFR-transgenic mouse adipose tissue at 30 mg/kg, po once daily for 14 days; type: ADME, organism-based; settings: time 14 day, read-out: beta t1/2 (converted)

SMILES | solubility [1] | Cmax [2] | AUC/dose [3] | clearance [4] | half-life [5] | bioavailability [6] | logD [7] | Stabilty [14] | also measured
COc1ccc(C(C)C)cc1-c1ccc(C(F)(F)F)cc1CN1C(=O)O[C@H](c2cc(C(F)(F)F)cc(C(F)(F)F)c2)[C@@H]1C | < 1 µM | 160 nM | 0.29 µM·kg·h/mg | 19 mL/min/kg | 4.9 h | 17% | > 6.9 |  | solubility thermodynamic [8]: < 2 µM
COc1cc(F)c(-c2ccc(C(=O)O)cc2C)cc1-c1ccc(C(F)(F)F)cc1[C@@H]1CC[C@H]2[C@@H](c3cc(C(F)(F)F)cc(C(F)(F)F)c3)OC(=O)N12 |  |  |  |  |  |  | 5.5 |  | AUC/dose [9]: 3.4 µM·h; MRT [10]: 5.8 h; clearance [11]: 6.6 mL/min/kg; Vd [12]: 2.3 L/kg; bioavailability [13]: 60%
COc1cc(F)c(-c2ccc(C(=O)O)cc2C)cc1-c1ccc(C(F)(F)F)cc1[C@@H]1CC[C@H]2[C@@H](c3cc(C)cc(C(F)(F)F)c3)OC(=O)N12 |  |  |  |  |  |  |  | Unstable | 
COc1ccc(-c2ccc(C(=O)O)cc2C)cc1-c1cnc(N(C)C)nc1[C@@H]1CC[C@H]2[C@@H](c3cc(C(F)(F)F)cc(C(F)(F)F)c3)OC(=O)N12 |  |  |  |  |  |  |  |  | AUC/dose [9]: 0.7 µM·h; MRT [10]: 2.8 h; clearance [11]: 33 mL/min/kg; Vd [12]: 5.6 L/kg; bioavailability [13]: 140%
COc1ncc(-c2c(C)cc(C(=O)O)cc2C)cc1-c1ccc(C(F)(F)F)cc1[C@@H]1CC[C@H]2[C@@H](c3cc(F)cc(C(F)(F)F)c3)OC(=O)N12 |  |  |  |  |  |  | 4.8 | Unstable | 
COc1ccc(-c2ccc(C(=O)O)cc2C)cc1-c1cc(C(C)C)c(N(C)C)nc1[C@@H]1CC[C@H]2[C@@H](c3cc(C(F)(F)F)cc(C(F)(F)F)c3)OC(=O)N12 |  |  |  |  |  |  | 6.6 | Unstable | 
COc1ccc(-c2ccc(C(=O)O)cc2C)cc1-c1ccc(C(F)(F)F)cc1CN1C(=O)O[C@H](c2cc(C(F)(F)F)cc(C(F)(F)F)c2)[C@@H]1C | 16 µM (≈ 11.4 µg/mL) | 430 nM | 0.86 µM·kg·h/mg | 18 mL/min/kg | 2.5 h | 65% |  |  | 
Cc1cc(C(=O)O)ccc1-c1ccc(Cl)c(-c2ccc(C(F)(F)F)cc2CN2C(=O)O[C@H](c3cc(C(F)(F)F)cc(C(F)(F)F)c3)[C@@H]2C)c1 | 43 µM (≈ 30.8 µg/mL) | 390 nM | 1.8 µM·kg·h/mg | 5.6 mL/min/kg | 62 h | 43% | 6.2 |  | half-life [15]: 83 h; solubility thermodynamic [8]: 43 µM (≈ 30.8 µg/mL)
COc1cc(F)c(C(C)C)cc1-c1ccc(C(F)(F)F)cc1CN1C(=O)O[C@H](c2cc(C(F)(F)F)cc(C(F)(F)F)c2)[C@@H]1C [ANACETRAPIB] | < 1 µM |  | 0.36 µM·kg·h/mg |  |  |  | > 6.9 |  | half-life [16]: 3.6 h; beta t1/2 [17]: 121 h; half-life at […] [18]: 27 h; beta t1/2 [19]: 49 h; beta t1/2 [20]: 150 h
Cc1cc(C)c2c(c1)[C@@H](N(Cc1cc(C(F)(F)F)cc(C(F)(F)F)c1)c1nnn(C)n1)CCCN2C[C@H]1CC[C@H](C(=O)O)CC1 [EVACETRAPIB] |  |  |  |  |  |  |  |  | half-life at […] [21]: 7.1 h; half-life at […] [22]: 18 h; half-life at […] [23]: 1.3 h

Source: ChEMBL document CHEMBL4842348 (J Med Chem, 2021)
